Test results taken from US12180187B2, “1-phenyl-5-azinylpyrazolyl-3-oxyalkyl acids and their use for controlling unwanted plant growth” (BAYER AKTIENGESELLSCHAFT, priority 2019, dated 2024).

How the values were obtained:
[1] = tested on: POLCO; experiment: Pre-emergence action at 320 g/ha against POLCO; format: in vivo, Fallopia convolvulus (Polygonum convolvulus); conditions: visual scoring after about 3 weeks vs untreated controls; for pest or weed control at 320 g/ha: Fallopia convolvulus, 504 h
Procedure, shortened: (§1)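 WP/EC formulations applied pre-emergence to covering soil, water rate 600 l/ha, 0.5% additive. Greenhouse, ~3 weeks. Visual % damage vs untreated (0–100%).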

[2] = tested on: DIGSA; experiment: Pre-emergence action at 320 g/ha against DIGSA; format: in vivo, Digitaria sanguinalis; conditions: visual scoring after about 3 weeks vs untreated controls; for pest or weed control at 320 g/ha: Digitaria sanguinalis, 504 h
Procedure, shortened: as §1

[3] = tested on: ECHCG; experiment: Pre-emergence action against ECHCG, 1280 g/ha; format: in vivo, Echinochloa crus-galli; conditions: visual scoring after about 3 weeks vs untreated controls, 100% = plants have died, 0% = like control plants; for pest or weed control at 1280 g/ha: Echinochloa crus-galli, 504 h
Procedure, shortened: (§2)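 Soil-surface application after sowing, before emergence: WP or EC formulations in water with 0.5% additive, 600 litres per hectare, onto sandy loam pots. Damage rated visually in % relative to untreated plants after roughly 3 weeks in a greenhouse.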

[4] = tested on: AVEFA; experiment: Pre-emergence action at 320 g/ha against AVEFA; format: in vivo; conditions: visual scoring after about 3 weeks vs untreated controls; for pest or weed control at 320 g/ha: Avena fatua, 504 h
Procedure, shortened: as §1

[5] = tested on: STEME; experiment: Pre-emergence action against STEME, 1280 g/ha; format: in vivo, Stellaria media; conditions: scored visually after about 3 weeks vs untreated controls (100% = plants have died); for pest or weed control at 1280 g/ha: Stellaria media, 504 h
Procedure, shortened: as §2

[6] = tested on: VERPE; experiment: Pre-emergence action against VERPE, 1280 g/ha; format: in vivo, Veronica persica; conditions: scored visually after about 3 weeks vs untreated controls (100% = plants have died); for pest or weed control at 1280 g/ha: Veronica persica, 504 h
Procedure, shortened: as §2

[7] = tested on: AMARE; experiment: Pre-emergence action against AMARE, 1280 g/ha; format: in vivo, Amaranthus retroflexus; conditions: scored visually after about 3 weeks vs untreated controls (100% = plants have died); for pest or weed control at 1280 g/ha: Amaranthus retroflexus, 504 h
Procedure, shortened: as §2

[8] = tested on: AMARE; experiment: Pre-emergence action at 320 g/ha against AMARE; format: in vivo, Amaranthus retroflexus; conditions: visual scoring after about 3 weeks vs untreated controls; for pest or weed control at 320 g/ha: Amaranthus retroflexus, 504 h
Procedure, shortened: as §1

[9] = tested on: MATIN; experiment: Pre-emergence action against MATIN, 1280 g/ha; format: in vivo, Tripleurospermum inodorum (Matricaria inodora); conditions: scored visually after about 3 weeks vs untreated controls (100% = plants have died); for pest or weed control at 1280 g/ha: Tripleurospermum inodorum, 504 h
Procedure, shortened: as §2

[10] = tested on: ALOMY; experiment: Pre-emergence action at 320 g/ha against ALOMY; format: in vivo, Alopecurus myosuroides; conditions: scored visually after about 3 weeks vs untreated controls (100% = plants have died); for pest or weed control at 320 g/ha: Alopecurus myosuroides, 504 h
Procedure, shortened: as §1

[11] = tested on: SETVI; experiment: Pre-emergence action at 320 g/ha against SETVI; format: in vivo, Setaria viridis; conditions: visual scoring after about 3 weeks vs untreated controls; for pest or weed control at 320 g/ha: Setaria viridis, 504 h
Procedure, shortened: as §1

[12] = tested on: POAAN; experiment: Post-emergence action against POAAN, 1.28 kg/ha; format: in vivo, Poa annua; conditions: dosage 1280 g/ha, visual rating about 3 weeks after treatment vs untreated controls; for pest or weed control at 1280 g/ha: Poa annua, 504 h
Procedure, shortened: (§3)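 Herbicidal action is estimated by eye after about three weeks under optimum greenhouse conditions, on a 0–100% scale against untreated plants. Compounds are applied post-emergence to one-leaf-stage weeds as aqueous WP or EC preparations containing 0.5% additive, sprayed at 600 L/ha.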

[13] = tested on: POAAN; experiment: Pre-emergence action against POAAN, 1280 g/ha; format: in vivo, Poa annua; conditions: visual scoring after about 3 weeks vs untreated controls, 100% = plants have died, 0% = like control plants; for pest or weed control at 1280 g/ha: Poa annua, 504 h
Procedure, shortened: as §2

[14] = tested on: SETVI; experiment: Pre-emergence action against SETVI, 1280 g/ha; format: in vivo, Setaria viridis; conditions: visual scoring after about 3 weeks vs untreated controls, 100% = plants have died, 0% = like control plants; for pest or weed control at 1280 g/ha: Setaria viridis, 504 h
Procedure, shortened: as §2

[15] = tested on: SETVI; experiment: Post-emergence action against SETVI, 1.28 kg/ha; format: in vivo, Setaria viridis; conditions: dosage 1280 g/ha, visual rating about 3 weeks after treatment vs untreated controls
Procedure, shortened: as §3

Row | Structure (SMILES) | Pre-emergence action against POLCO in % [1] [%] | Pre-emergence action against DIGSA in % [2] [%] | Pre-emergence action against ECHCG [3] [%] | Pre-emergence action against AVEFA in % [4] [%] | Pre-emergence action against STEME [5] [%] | Pre-emergence action against VERPE [6] [%] | Pre-emergence action against AMARE [7] [%] | Post-emergence action against SETVI [15] [%] | Pre-emergence action against AMARE in % [8] [%] | Pre-emergence action against MATIN [9] [%] | Pre-emergence action at 320 g/ha against ALOMY in % [10] [%] | Pre-emergence action against SETVI in % [11] [%] | Post-emergence action against POAAN [12] [%] | Pre-emergence action against POAAN [13] [%] | Pre-emergence action against SETVI [14] [%] | further results
1 | C=CCNC(=O)COc1nn(-c2ccccc2F)c(-c2ccc(F)nc2)c1Br [Example X-001, N-Allyl-2-{[4-bromo-1-(2-fluorophenyl)-5-(6-fluoropyridin-3-yl)-1H-pyrazol-3-yl]oxy}acetamide] |  |  |  |  |  |  |  |  |  |  |  |  |  |  |  | pest or weed control at 320 g/ha [1]: 90%; pest or weed control at 320 g/ha [2]: 100%; pest or weed control at 1280 g/ha [3]: 100%; pest or weed control at 320 g/ha [4]: 90%; pest or weed control at 1280 g/ha [5]: 100%; pest or weed control at 1280 g/ha [6]: 100%; pest or weed control at 1280 g/ha [7]: 100%; pest or weed control at 320 g/ha [8]: 90%; pest or weed control at 1280 g/ha [9]: 90%; pest or weed control at 320 g/ha [10]: 100%; pest or weed control at 320 g/ha [11]: 100%; pest or weed control at 1280 g/ha [12]: 100%; pest or weed control at 1280 g/ha [13]: 100%; pest or weed control at 1280 g/ha [14]: 100%
2 | COC(=O)CNC(=O)COc1nn(-c2ccccc2F)c(-c2ccc(F)nc2)c1Br [Example X-002] | 100 | 100 | 90 | 100 | 100 | 100 | 100 | 100 | 100 | 90 | 100 | 100 | 100 | 100 | 100 | 
3 | CS(=O)(=O)NC(=O)COc1nn(-c2ccccc2F)c(-c2ccc(F)nc2)c1Br [Example X-004] | 90 | 100 | 100 | 90 | 100 | 90 | 100 | 90 | 90 | 100 | 100 | 100 | 100 | 100 | 100 | 
4 | O=C(O)COc1nn(-c2ccccc2F)c(-c2cncnc2)c1Br [VI-007, {[4-Bromo-1-(2-fluorophenyl)-5-(pyrimidin-5-yl)-1H-pyrazol-3-yl]oxy}acetic Acid] |  |  |  |  |  |  |  | 90 |  |  |  |  |  |  |  | pest or weed control at 320 g/ha [1]: 100%; pest or weed control at 320 g/ha [2]: 100%; pest or weed control at 1280 g/ha [3]: 100%; pest or weed control at 320 g/ha [4]: 90%; pest or weed control at 1280 g/ha [5]: 100%; pest or weed control at 1280 g/ha [6]: 90%; pest or weed control at 1280 g/ha [7]: 100%; pest or weed control at 320 g/ha [8]: 100%; pest or weed control at 1280 g/ha [9]: 100%; pest or weed control at 320 g/ha [10]: 80%; pest or weed control at 320 g/ha [11]: 100%; pest or weed control at 1280 g/ha [12]: 100%; pest or weed control at 1280 g/ha [13]: 100%; pest or weed control at 1280 g/ha [14]: 100%
5 | COC(=O)COc1nn(-c2ccc(F)cc2)c(-c2ccc(F)nc2)c1Br [VII-002] | 100 | 100 | 100 | 80 | 100 |  | 100 | 90 | 100 | 90 | 90 | 90 | 100 | 100 | 100 | 
6 | CCOC(=O)COc1nn(-c2ccccc2F)c(-c2ccc(F)nc2)c1C(F)(F)F [VII-010] | 90 | 100 | 100 | 90 | 100 | 100 | 100 | 90 | 100 | 90 | 100 | 100 | 100 | 100 | 100 | 
7 | O=C(O)COc1nn(-c2ccccc2F)c(-c2cncc(F)c2)c1Br [VII-025] | 100 | 100 | 100 | 80 | 100 | 100 | 100 | 90 | 100 | 100 | 100 | 100 | 100 | 100 | 100 | 
8 | COC(=O)C(C)Oc1nn(-c2ccccc2)c(-c2ccc(F)nc2)c1Br (centres unmarked) [VII-026] | 100 | 100 | 90 |  | 90 | 100 | 100 |  | 100 | 90 | 100 | 80 | 100 | 100 | 100 | 
9 | COC(=O)COc1nn(-c2ccccc2F)c(-c2ccc(F)nc2)c1F [VII-040] | 90 | 100 | 100 | 100 | 100 | 100 | 100 | 90 | 100 | 100 | 100 | 100 | 100 | 100 | 100 | 
10 | COCCOC(=O)COc1nn(-c2ccccc2F)c(-c2ccc(F)nc2)c1Br [VII-052] | 100 | 100 | 100 | 90 | 100 | 100 | 100 | 90 | 100 | 100 | 100 | 100 | 100 | 100 | 100 | 
